One compound from patent publication US20110294736A1, “COMPOUNDS AND METHODS FOR THE TREATMENT OF AUTOIMMUNE AND INFLAMMATORY DISEASE” (THE PROVOST, FELLOWS AND SCHOLARS OF THE HOLY AND UNDIVIDED …, priority 2008, published 2011) can be followed below.

Assay [1] relates to Spleen cells. Nature of the assay: TLR agonist induced cytokines (ELISA) of spleen cells from treated mice. Format: in vivo. Particulars: TriDAP 100 μg/mouse/day i.p. 5 days vs PBS; LPS, CpG or Pam3Csk; 24 hours. The method, then: Mice treated with either PBS or TriDAP (100 μg/mouse/day i.p.) for 5 days. Spleen cells ([…]; 1×10^6/ml) were stimulated with medium alone (control), or with a Toll-like Receptor agonist selected from the following: the TLR4 agonist LPS (lipopolysaccharide) (100 ng/ml), the TLR9 agonist CpG (5 μg/ml), or the TL2 agonist Pam3Csk (500 ng/ml). Supernatants were collected after 24 hours and cytokine concentrations were quantified by ELISA.
A general note: In an ELISA, binding on a coated surface is turned into a signal by an enzyme label.

For assay [2], the system named is MOG-specific IL-17, IFN-γ and TNF-α response of lymph node cells. Put plainly: MOG-specific cytokines (ELISA) of restimulated lymph node cells after EAE induction. It counts as in vivo, mice. Particulars: lymph node cells day 5. On the procedure: EAE was induced in C57BL/6 mice by s.c injection with 150 μg of MOG35-55 in CFA supplemented with 4 mg/ml H37 Ra M. tuberculosis on day 0. All mice were injected i.p with PT on days 0 and 2. One group of mice were untreated, the second group were given 100 μg Tri-DAP 6 hours before immunization and a third group were given Tri-DAP (100 μg/mouse) on day 0 in MOG/CFA emulsion and again on days 1, 2 and 4. Mice were sacrificed on day 5 and lymph nodes cells were stimulated with MOG peptide (Myelin oligodendrocyte glycoprotein) (20-100 μg/ml) or as negative and positive controls, medium only or PMA and anti-CD3 respectively. After 72 hours supernatants were removed and analyzed for IL-17, TNF-α (TNF-alpha) and IFN-γ (interferon gamma) by ELISA.

In assay [3] the test system is BMDC. Put plainly: EBI3 and IL-27p28 mRNA in BMDC pretreated with MAPK/MEK1/2 inhibitors, then TriDAP and LPS or CpG. Format: cell-based, murine. On the procedure:
BMDC (1×10^6) were pretreated with either the MAPK inhibitor, SB203580 ([…]) or the MEK1/2 inhibitor, U0126 ([…]) for 30 minutes prior to stimulation with TriDAP […] or medium alone. After 24 hours the cells were then stimulated with LPS (lipopolysaccharide) (100 ng/ml), CpG ([…]) or medium alone. EBI3 and IL-27p28 mRNA were evaluated by real time PCR normalized to 18S rRNA. Data are shown as fold induction over DC cultured in medium only (FIG. 9 (a) and FIG. 9 (b)).

The test system of assay [4] is Dendritic cells cultured from human PBMC. Put plainly: IL-27 and IL-10 ELISA in dendritic cells cultured from human PBMC. Format: cell-based. Particulars: 24 hours. The method, then: Dendritic cells cultured from human PBMC with IL-4 and GM-CSF were stimulated with TriDap (100 μg/ml), LPS (10 or 100 ng/ml), LPS and TriDAP or medium only. Supernatants were collected after 24 hours and IL-27 and IL-10 concentrations were quantified by ELISA. **P<0.01, ***P<0.001, with versus without TriDAP.

Assay [5] deals with PLP-specific IL-17 and IFN-γ. Nature of the assay: PLP-specific IL-17 and IFN-γ (ELISA) of restimulated lymph node or spleen cells, relapsing-remitting EAE model. Format: in vivo. Particulars: SJL mice, TriDAP 100 μg/mouse every 2 days from day 12, day 26, PLP 1-25 μg/ml. The method, then: EAE was induced in SJL mice by immunization with […] (PLP) in complete Freund's adjuvant (CFA) followed by pertussis toxin (PT). Mice were treated with PBS (control) or TriDAP (100 μg/mouse) every 2 days from day 12. Mice were sacrificed on day 26, and lymph node or spleen cells restimulated in vitro with PLP (1-25 μg/ml). After 3 days, IL-17 and IFNγ production in supernatants were quantified by ELISA.

The subject of assay [6] is EBI3 mRNA. Nature of the assay: EBI3 mRNA (real time PCR) in inguinal lymph nodes 72 hours post EAE induction. Format: in vivo. Particulars: Tri-DAP 100 μg/mouse days 0, 1, 2, vs control mice. The method, then:
EAE was induced in C57BL/6 mice by subcutaneous injection with 150 μg of MOG35-55 in CFA supplemented with 4 mg/ml H37 Ra M. tuberculosis on day 0. All mice were injected i.p with PT on days 0 and 2. One group of mice were untreated and the second group were given Tri-DAP (100 μg/mouse) given on day 0 in MOG/CFA emulsion and again on days 1 and 2. Three mice from each group were sacrificed 72 hours post EAE induction. The inguinal lymph nodes were removed and collected in Trizol. EBI3 mRNA was evaluated by real time PCR normalized to 18S rRNA. Data are shown as fold induction over naïve C57BL/6 inguinal lymph nodes (FIG. 7).
In general terms: Quantitative PCR measures a nucleic acid by following its amplification.

Assay [7] deals with Bone marrow derived DC. Put plainly: EBI3 and IL-27p28 mRNA in bone marrow derived DC stimulated with TLR agonists. Particulars: Tri-DAP 100 μg/ml 24 hours before LPS 10 ng/ml for 6 hours. Format: cell-based, murine. On the procedure:
Bone marrow derived DC (1×10^6 cell/ml) were pretreated with Tri-DAP (100 μg/ml) for 24 hours prior to stimulation with the TLR agonists LPS (10 ng/ml) and CpG (5 μg/ml), and the MOG35-55 peptide (20 μg/ml) or medium alone (control) for 6 hours. EBI3 (FIG. 8 (a)) and IL-27p28 (FIG. 8 (b)) mRNA were evaluated by real time PCR normalized to 18S rRNA. Data are shown as fold induction over DC cultured in medium only.

Assay [8] relates to BMDC. Nature of the assay: IL-12p40, IL-23, IL-12p70 and IL-10 ELISA in BMDC with p38 or ERK inhibitor, Tri-DAP and LPS or CpG. Format: cell-based, murine. On the procedure:
BMDC (1×10^6) were pretreated with the p38 inhibitor, SB203580 (5 μM—FIGS. 10-11), or the ERK inhibitor UO126 (5 μM—FIGS. 12-13) for 30 minutes prior to stimulation with Tri-DAP (100 μg/ml) or medium alone. After 2 hours the cells were then stimulated with LPS (100 ng/ml—FIGS. 10 and 12), with the TLR agonist CpG (5 μg/ml—FIGS. 11 and 13) or with medium alone. Supernatants were collected after 24 hours and IL-12p40, IL-23, IL-12p70 and IL-10 concentrations were quantified by ELISA.

[9] abbreviates: U0126 (5 mM) 30 minutes before TriDAP, LPS 100 ng/ml after 24 hours.
Where [10] appears, read: TriDap 100 μg/ml with LPS 10 or 100 ng/ml.
Where [11] appears, read: Tri-DAP 100 μg/ml pretreatment, LPS 100 ng/ml or CpG 5 μg/ml, 24 hours.

On to `C[C@H](N)C(=O)N[C@H](CCC(=O)N[C@@H](CCC[C@@H](N)C(=O)O)C(=O)O)C(=O)O` [Tri-DAP, L-alanyl-γ-D-glutamyl-meso-diaminopimelic acid], for which, in assay [1], the “IL-10 secreted by spleen cells after re-stimulation with TLR agonists” value is listed as “higher concentrations”, the “IL-27 secreted by spleen cells after re-stimulation with TLR agonists” value is listed as “higher concentrations” and the “TGF-beta secreted by spleen cells after re-stimulation with TLR agonists” value is recorded as “higher concentrations”. Besides, in assay [2] (100 μg Tri-DAP 6 hours before immunization, vs control EAE mice), the “MOG-specific T cell responses (IL-17, IFN-γ, TNF-α)” value was “significantly reduced”. Further, the “MOG-specific T cell responses (IL-17, IFN-γ, TNF-α)” value in assay [2] (Tri-DAP 100 μg/mouse on days 0, 1, 2 and 4) is “no detectable”. Besides, in assay [3] (setting [9]), the “Tri-DAP synergy with LPS for EBI3 gene expression under inhibition of ERK” value is given as “greatly enhances” and the “Tri-DAP synergy with LPS for IL-27p28 gene expression under inhibition of ERK” value is “greatly enhances”. Besides, the “Tri-DAP induced or Tri-DAP and TLR agonist induced IL-27 production on addition of an ERK inhibitor” value in assay [3] (dendritic cells, ERK inhibitor added) is on record as “significantly enhances”. Further, the “IL-27 expression by human derived dendritic cells” value in assay [4] (TriDAP 100 μg/ml alone, without TLR agonist) is recorded as “express IL-27”. Further, the “IL-10 production by human dendritic cells” value in assay [4] (TriDap 100 μg/ml alone) is on record as “Induces”. In addition, in assay [4] (setting [10]), the “IL-27 expression on co-stimulation with a Toll-like Receptor agonist” value was “significant enhanced” and the “TLR-induced IL-10 production by human dendritic cells” value is reported as “Enhances”. In assay [5] (spleen and lymph node cells), the “PLP-specific IL-17 levels” value is “on-going reduction”. In addition, the “PLP-specific IFN-gamma levels” value in assay [5] (spleen cells) is on record as “on-going reduction”. Moreover, the “EBI3 gene expression in inguinal lymph nodes” value in assay [6] is given as “strong fold increase”. Further, in assay [7], the “LPS induced EBI3 gene expression” value is on record as “enhancement” and the “LPS induced IL-27p28 gene expression” value is “enhancement”. In assay [8] (setting [11]), the “LPS and CpG production of IL-12p40” value is reported as “enhances”; the “LPS and CpG production of IL-12p70” value is “enhances”; the “LPS and CpG production of IL-23” value is given as “enhances”. Also, in assay [8] (Tri-DAP 100 μg/ml, LPS 100 ng/ml or CpG 5 μg/ml, 24 hours), the “LPS and CpG induced IL-10 production” value is on record as “enhanced”. Further, in assay [8] (p38 inhibitor SB203580 5 μM), the “enhancement of LPS and CpG induced IL-10 production when p38 is inhibited” value is “completely abolished”; the “synergy of Tri-DAP with LPS or CpG (IL-12 family), dependence on p38” value is on record as “partially dependent on p38”.
